# Reference: patent US20070203133A1, “Substituted 5,12-diaza-benzoanthracene analogues” (Neurogen Corporation, priority 2004, published 2007)
# Molecular target: T1, human capsaicin receptor (Homo sapiens, UniProt Q8NER1)
# T1 construct: transfected with the pBK-CMV expression construct encoding the full length human capsaicin receptor; expressed in transfected cells; host or cells: HEK293, stably transfected with the pBK-CMV construct
# Assay: Calcium mobilization assay, determination of antagonist activity
# Type: cell-based
# Settings: 50% decrease in the fluorescence response of cells expressing human capsaicin receptor exposed to capsaicin
# Procedure: A cDNA encoding full length human capsaicin receptor (SEQ ID NO:1, 2 or 3 of U.S. Pat. No. 6,482,611) is subcloned in the plasmid pBK-CMV (Stratagene, La Jolla, Calif.) for recombinant expression in mammalian cells.
# Human embryonic kidney (HEK293) cells are transfected with the pBK-CMV expression construct encoding the full length human capsaicin receptor using standard methods. The transfected cells are selected for two weeks in media containing G418 (400 μg/ml) to obtain a pool of stably transfected cells. Independent clones are isolated from this pool by limiting dilution to obtain clonal stable cell lines for use in subsequent experiments.
# Cells transfected with expression plasmids (as described in Example 4) and thereby expressing human capsaicin receptor are seeded and grown to 70-90% confluency in FALCON black-walled, clear-bottomed 96-well plates (#3904, BECTON-DICKINSON, Franklin Lakes, N.J.). The culture medium is emptied from the 96 well plates and FLUO-3 AM calcium sensitive dye (Molecular Probes, Eugene, Oreg.) is added to each well (dye solution: 1 mg FLUO-3 AM, 440 μL DMSO and 440 μl 20% pluronic acid in DMSO, diluted 1:250 in Krebs-Ringer HEPES (KRH) buffer (25 mM HEPES, 5 mM KCl, 0.96 mM NaH2PO4, 1 mM MgSO4, 2 mM CaCl2, 5 mM glucose, 1 mM probenecid, pH 7.4), 50 μL diluted solution per well). Plates are covered with aluminum foil and incubated at 37° C. for 1-2 hours in an environment containing 5% CO2. After the incubation, the dye is emptied from the plates, and the cells are washed once with KRH buffer, and resuspended in KRH buffer.
# To measure the ability of a test compound to agonize or antagonize a calcium mobilization response in cells expressing capsaicin receptors to capsaicin or other vanilloid agonist, the EC50 of the agonist capsaicin is first determined. An additional 20 μl of KRH buffer and 1 μl DMSO is added to each well of cells, prepared as described above. 100 μl capsaicin in KRH buffer is automatically transferred by the FLIPR instrument to each well. Capsaicin-induced calcium mobilization is monitored using either FLUOROSKAN ASCENT (Labsystems; Franklin, Mass.) or FLIPR (fluorometric imaging plate reader system; Molecular Devices, Sunnyvale, Calif.) instruments. Data obtained between 30 and 60 seconds after agonist application are used to generate an 8-point concentration response curve, with final capsaicin concentrations of 1 nM to 3 μM. KALEIDAGRAPH software (Synergy Software, Reading, Pa.) is used to fit the data to the equation: y=a*(1/(1+(b/x)^c)) to determine the 50% excitatory concentration (EC50) for the response. In this equation, y is the maximum fluorescence signal, x is the concentration of the agonist or antagonist (in this case, capsaicin), a is the Emax, b corresponds to the EC50 value and c is the Hill coefficient. Determination of Agonist Activity
# Test compounds are dissolved in DMSO, diluted in 20 μl KRH buffer so that the final concentration of test compounds in the assay well is between 1 μM and 5 μM, and added to cells prepared as described above. The 96 well plates containing prepared cells and test compounds are incubated in the dark, at room temperature for 0.5 to 6 hours. It is important that the incubation not continue beyond 6 hours. Just prior to determining the fluorescence response, 100 μl capsaicin in KRH buffer at twice the EC50 concentration determined as described above is automatically added by the FLIPR instrument to each well of the 96 well plate for a final sample volume of 200 μl and a final capsaicin concentration equal to the EC50. The final concentration of test compounds in the assay wells is between 1 μM and 5 μM. […] The concentration of antagonist required to provide a 50% decrease, relative to the response observed in the presence of capsaicin and without antagonist, is the IC50 for the antagonist, and is preferably below 1 micromolar, 100 nanomolar, 10 nanomolar or 1 nanomolar.
# T1 sequence (Q8NER1 whole entry): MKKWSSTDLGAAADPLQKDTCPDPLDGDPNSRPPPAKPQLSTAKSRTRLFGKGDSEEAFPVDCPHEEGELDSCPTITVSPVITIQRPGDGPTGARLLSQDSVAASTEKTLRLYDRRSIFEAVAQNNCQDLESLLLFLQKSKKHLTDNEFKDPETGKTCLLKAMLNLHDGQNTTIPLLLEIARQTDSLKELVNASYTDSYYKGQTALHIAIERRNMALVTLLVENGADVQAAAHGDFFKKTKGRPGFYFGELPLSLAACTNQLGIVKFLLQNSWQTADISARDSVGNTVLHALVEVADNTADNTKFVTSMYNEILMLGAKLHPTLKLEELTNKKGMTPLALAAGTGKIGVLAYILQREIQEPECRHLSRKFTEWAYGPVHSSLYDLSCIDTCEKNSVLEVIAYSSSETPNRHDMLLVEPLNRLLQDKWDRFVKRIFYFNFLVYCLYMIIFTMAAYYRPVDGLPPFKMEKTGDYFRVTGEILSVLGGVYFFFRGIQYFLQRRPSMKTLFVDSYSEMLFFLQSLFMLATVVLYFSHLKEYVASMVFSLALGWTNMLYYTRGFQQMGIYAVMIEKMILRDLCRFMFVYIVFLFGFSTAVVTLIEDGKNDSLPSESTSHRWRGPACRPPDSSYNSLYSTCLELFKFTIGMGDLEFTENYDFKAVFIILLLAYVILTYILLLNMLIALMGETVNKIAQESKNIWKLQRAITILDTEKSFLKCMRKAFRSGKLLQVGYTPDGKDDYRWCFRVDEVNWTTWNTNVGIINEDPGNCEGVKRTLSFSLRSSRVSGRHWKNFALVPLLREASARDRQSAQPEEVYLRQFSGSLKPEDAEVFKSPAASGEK
row,SMILES,IC50
1,"COCc1nc2nc(-c3ncccc3C(F)(F)F)ccc2c2c1Oc1cc(C(F)(F)F)ccc1N2 [Compound 1, 6-Methoxymethyl-9-trifluoromethyl-3-(3-trifluoromethyl-pyridin-2-yl)-12H-7-oxa-4,5,12-triaza-benzo[a]anthracene]",≤ 1 µM
2,"COCc1nc2nc(-c3ncccc3C(F)(F)F)ccc2c2c1Oc1ccc(Cl)cc1N2 [Compound 3, 10-Chloro-6-methoxymethyl-3-(3-trifluoromethyl-pyridin-2-yl)-12H-7-oxa-4,5,12-triaza-benzo[a]anthracene]",≤ 1 µM
3,"COCc1nc2nc(-c3ncccc3C(F)(F)F)ccc2c2c1Oc1cc(S(C)(=O)=O)ccc1N2 [Compound 4, 9-Methanesulfonyl-6-methoxymethyl-3-(3-trifluoromethyl-pyridin-2-yl)-12H-7-oxa-4,5,12-triaza-benzo[a]anthracene]",≤ 1 µM
4,"COCc1nc2nc(-c3ncccc3C(F)(F)F)ccc2c2c1Oc1cc(C(C)(C)C)ccc1N2 [Compound 5, 9-tert-Butyl-6-methoxymethyl-3-(3-trifluoromethyl-pyridin-2-yl)-12H-7-oxa-4,5,12-triaza-benzo[a]anthracene]",≤ 1 µM
5,"FC(F)(F)c1ccc2c(c1)Oc1c(Cl)nc3nc(-c4ncccc4C(F)(F)F)ccc3c1N2 [Compound 6, 6-Chloro-9-trifluoromethyl-3-(3-trifluoromethyl-pyridin-2-yl)-12H-7-oxa-4,5,12-triaza-benzo[a]anthracene]",≤ 1 µM
6,"OCc1nc2nc(-c3ncccc3C(F)(F)F)ccc2c2c1Oc1cc(C(F)(F)F)ccc1N2 [Compound 7, [9-Trifluoromethyl-3-(3-trifluoromethyl-pyridin-2-yl)-12H-7-oxa-4,5,12-triaza-benzo[a]anthracen-6-yl]-methanol]",≤ 1 µM
7,"C[C@@H]1CN(Cc2nc3nc(-c4ncccc4C(F)(F)F)ccc3c3c2Oc2cc(C(F)(F)F)ccc2N3)C[C@H](C)O1 [Compound 8, 6-(2,6-Dimethyl-morpholin-4-ylmethyl)-9-trifluoromethyl-3-(3-trifluoromethyl-pyridin-2-yl)-12H-7-oxa-4,5,12-triaza-benzo[a]anthracene (cis)]",≤ 1 µM
8,"CCCN(CCC)Cc1nc2nc(-c3ncccc3C(F)(F)F)ccc2c2c1Oc1cc(C(F)(F)F)ccc1N2 [Compound 9, Dipropyl-[9-trifluoromethyl-3-(3-trifluoromethyl-pyridin-2-yl)-12H-7-oxa-4,5,12-triaza-benzo[a]anthracen-6-ylmethyl]-amine]",≤ 1 µM
9,"Cc1nc2nc(-c3ncccc3C(F)(F)F)ccc2c2c1Oc1cc(C(F)(F)F)ccc1N2 [Compound 10, 6-Methyl-9-trifluoromethyl-3-(3-trifluoromethyl-pyridin-2-yl)-12H-7-oxa-4,5,12-triaza-benzo[a]anthracene]",≤ 1 µM
10,"FC(F)(F)c1ccc2c(c1)Oc1cnc3nc(-c4ncccc4C(F)(F)F)ccc3c1N2 [Compound 11, 9-Trifluoromethyl-3-(3-trifluoromethyl-pyridin-2-yl)-12H-7-oxa-4,5,12-triaza-benzo[a]anthracene]",≤ 1 µM
11,"CC(C)COCc1nc2nc(-c3ncccc3C(F)(F)F)ccc2c2c1Oc1cc(C(F)(F)F)ccc1N2 [Compound 12, 6-Isobutoxymethyl-9-trifluoromethyl-3-(3-trifluoromethyl-pyridin-2-yl)-12H-7-oxa-4,5,12-triaza-benzo[a]anthracene]",≤ 1 µM
12,"COCc1nc2nc(-c3ncccc3C(F)(F)F)ccc2c2c1Oc1cc(F)ccc1N2 [Compound 13, 9-Fluoro-6-methoxymethyl-3-(3-trifluoromethyl-pyridin-2-yl)-12H-7-oxa-4,5,12-triaza-benzo[a]anthracene]",≤ 1 µM
13,"Cc1nc2cc(-c3ncccc3C(F)(F)F)ccc2c2c1Oc1ccccc1N2 [Compound 14, 6-Methyl-3-(3-trifluoromethyl-pyridin-2-yl)-12H-7-oxa-5,12-diaza-benzo[a]anthracene]",≤ 1 µM
14,"COCc1nc2nc(-c3ncccc3C(F)(F)F)ccc2c2[nH]c3ccc(Cl)cc3c(=O)c12 [Compound 15, 9-Chloro-6-methoxymethyl-3-(3-trifluoromethyl-pyridin-2-yl)-12H-4,5,12-triaza-benzo[a]anthracen-7-one]",≤ 1 µM
15,"COCc1nc2nc(-c3ncccc3C(F)(F)F)ccc2c2[nH]c3ccc(Br)cc3c(=O)c12 [Compound 16, 9-Bromo-6-methoxymethyl-3-(3-trifluoromethyl-pyridin-2-yl)-12H-4,5,12-triaza-benzo[a]anthracen-7-one]",≤ 1 µM
16,"COCc1nc2nc(-c3ncccc3C(F)(F)F)ccc2c2c1C(O)c1cc(Br)ccc1N2 (centres unmarked) [Compound 17, 9-Bromo-6-methoxymethyl-3-(3-trifluoromethyl-pyridin-2-yl)-7,12-dihydro-4,5,12-triaza-benzo[a]anthracen-7-ol]",≤ 1 µM

# Molecular target: VR (Homo sapiens, UniProt Q8NER1)
# Sequence (Q8NER1 whole entry): as above
# Assay: not given
# Settings: binds to VR with no more than moderate affinity; typical value; cited from earlier work
row,SMILES,Ki
1,Cl.Cl.Cl.Cl.Cl.Cl.N.N.N.N.N.N.N.N.N.N.N.N.N.N.[O-2].[O-2].[Ru+3].[Ru+3].[Ru+4] [ruthenium red],≥ 140 µM
